Key:
Plasmopara viticola = assay: Example I: in vivo preventive test on Plasmopara viticola (grapevine); conditions: 144 h, 10 ppm of active ingredient, preventive spray on young plants, evaluated 6 days after inoculation, read-out: Eff. %
Procedure: In Vivo Preventive Test on Plasmopara viticola (Grapevine)
To produce a suitable preparation of active compound, 1 part by weight of active compound is mixed with the stated amounts of solvent and emulsifier, and the concentrate is diluted with water to the desired concentration.
To test for preventive activity, young plants are sprayed with the preparation of active compound at the stated rate of application. After the spray coating has dried on, the plants are inoculated with an aqueous spore suspension of Plasmopara viticola and then remain for 1 day in an incubation cabinet at approximately 20° C. and a relative atmospheric humidity of 100%. The plant is subsequently placed for 4 days in a greenhouse at approximately 21° C. and a relative atmospheric humidity of approximately 90%. The plants are then misted and placed for 1 day in an incubation cabinet.
The test is evaluated 6 days after the inoculation. 0% means an efficacy which corresponds to that of the untreated control, while an efficacy of 100% means that no disease is observed.

[1] = pH 2.7, LogP, HPLC on reversed phase columns, pH 2.7, 0.1% formic acid in water / acetonitrile gradient
Procedure: Measurement of log P values was performed according EEC directive 79/831 Annex V.A8 by HPLC (High Performance Liquid Chromatography) on reversed phase columns with the following method:
Measurement of LC-MS was done at pH 2.7 with 0.1% formic acid in water and with acetonitrile (contains 0.1% formic acid) as eluent with a linear gradient from 10% acetonitrile to 95% acetonitrile.
Calibration was done with not branched alkan2-ones (with 3 to 16 carbon atoms) with known log P-values (measurement of log P values using retention times with linear interpolation between successive alkanones). lambda-maX-values were determined using UV-spectra from 200 nm to 400 nm and the peak values of the chromatographic signals.

Pyricularia oryzae = assay: whole plant or invertebrate; type: in vivo; conditions: 144 h, read-out: % efficacy
Phytophthora infestans = assay: whole plant or invertebrate; type: in vivo; conditions: in Solanum lycopersicum, 120 h, read-out: % efficacy
Puccinia recondita = assay: Example E: in vivo preventive test on Puccinia recondita (brown rust on wheat); conditions: 500 ppm, preventive spray on wheat plants, contamination after 24 hours, grading 12 days after contamination vs control plants
Procedure: In Vivo Preventive Test on Puccinia recondita (Brown Rust on Wheat)
The active ingredients tested are prepared by homogenization in a mixture of acetone/tween/DMSO, and then diluted with water to obtain the desired active material concentration.
Wheat plants (“Scipion” variety), sown in starter cups on a 50/50 peat soil-pozzolana substrate and grown at 22° C., are treated at the 1-leaf stage (10 cm height) by spraying with the active ingredient prepared as described above. Plants, used as controls, are treated with the mixture of acetone/tween/DMSO/water not containing the active material.
After 24 hours, the plants are contaminated by spraying the leaves with an aqueous suspension of Puccinia recondita spores (100 000 spores per ml). The spores are collected from an infected plant and are suspended in water containing 2.5 ml/l of Tween 80 at 10%. The contaminated wheat plants are incubated for 24 hours at 20° C. and at 100% relative humidity, and then for 10 days at 20° C. and at 70-80% relative humidity.
Grading (% of efficacy) is carried out 12 days after the contamination, in comparison with the control plants.
Under these conditions, good (at least 70%) or total protection is observed at a dose of 500 ppm with the following compounds: […]

Cn1oc(=O)nc1/C(=N\OCc1cccc(NCCC2CCCCC2)n1)c1ccccc1 [Example 3, 3-[(Z)-[({6-[(2-cyclohexylethyl)amino]pyridin-2-yl}methoxy)imino](phenyl)methyl]-2-methyl-1,2,4-oxadiazol-5(2H)-one]
pest or weed control at 10 ppm (Plasmopara viticola): 93% | chromatographic logP [1]: 2.43

Cn1oc(=O)nc1C(=NOCc1cccc(NC(=O)C(C)(C)C)n1)c1ccccc1 [Example 9]
pest or weed control at 500 ppm (Pyricularia oryzae): 71% | chromatographic logP [1]: 2.86 | pest or weed control at 500 ppm (Phytophthora infestans): 99% | % efficacy (Puccinia recondita): 71%

CCCCCOC(=O)Nc1cccc(CON=C(c2ccccc2)c2nc(=O)on2C)n1 [Example 13]
pest or weed control at 10 ppm (Plasmopara viticola): 95% | chromatographic logP [1]: 3.81 | pest or weed control at 500 ppm (Phytophthora infestans): 100%

CCCCOC(=O)Nc1cccc(CON=C(c2ccccc2)c2nc(=O)on2C)n1 [Example 14]
pest or weed control at 10 ppm (Plasmopara viticola): 94% | chromatographic logP [1]: 3.39 | pest or weed control at 500 ppm (Phytophthora infestans): 100%

Cn1oc(=O)nc1/C(=N\OCc1cccc(NC(=O)OCCc2ccccc2)n1)c1ccccc1 [Example 15, 2-phenylethyl {6-[({[(Z)-(2-methyl-5-oxo-2,5-dihydro-1,2,4-oxadiazol-3-yl)(phenyl)methylene]amino}oxy)methyl]pyridin-2-yl}carbamate]
pest or weed control at 10 ppm (Plasmopara viticola): 94% | chromatographic logP [1]: 3.57 | pest or weed control at 500 ppm (Phytophthora infestans): 99%

Cn1oc(=O)nc1C(=NOCc1cccc(NC(=O)OCc2ccccc2)n1)c1ccccc1 [Example 17]
pest or weed control at 10 ppm (Plasmopara viticola): 82% | chromatographic logP [1]: 3.41 | pest or weed control at 500 ppm (Phytophthora infestans): 100% | % efficacy (Puccinia recondita): 83%

CCCC(C)C(=O)Nc1cccc(CON=C(c2ccccc2)c2nc(=O)on2C)n1 (stereo not shown) [Example 18]
chromatographic logP [1]: 3.19 | pest or weed control at 500 ppm (Phytophthora infestans): 100% | % efficacy (Puccinia recondita): 78%

CC(C)CC(=O)Nc1cccc(CON=C(c2ccccc2)c2nc(=O)on2C)n1 [Example 19]
chromatographic logP [1]: 2.82 | pest or weed control at 500 ppm (Phytophthora infestans): 100% | % efficacy (Puccinia recondita): 89%

Cn1oc(=O)nc1/C(=N\OCc1cccc(NC(=O)OC(C)(C)C)n1)c1cccc(F)c1 [Example 20, tert-butyl {6-[({[(Z)-(2-methyl-5-oxo-2,5-dihydro-1,2,4-oxadiazol-3-yl)(3-fluorophenyl)methylene]amino}oxy)methyl]pyridin-2-yl}carbamate]
pest or weed control at 10 ppm (Plasmopara viticola): 74% | pest or weed control at 500 ppm (Pyricularia oryzae): 81% | chromatographic logP [1]: 3.46 | pest or weed control at 500 ppm (Phytophthora infestans): 100%

COc1cccc(C(=NOCc2cccc(NC(=O)OC(C)(C)C)n2)c2nc(=O)on2C)c1 [Example 22]
chromatographic logP [1]: 3.39 | % efficacy (Puccinia recondita): 94%

COc1cccc(C(=NOCc2cccc(NC(=O)C(C)Oc3ccccc3)n2)c2nc(=O)o[nH]2)c1 (stereo not shown) [Example 44]
pest or weed control at 500 ppm (Pyricularia oryzae): 83% | chromatographic logP [1]: 3.39 | pest or weed control at 500 ppm (Phytophthora infestans): 100%

C#CCOC(=O)Nc1cccc(CON=C(c2cccc(F)c2)c2nc(=O)o[nH]2)n1 [Example 46]
pest or weed control at 500 ppm (Pyricularia oryzae): 83% | chromatographic logP [1]: 2.69 | pest or weed control at 500 ppm (Phytophthora infestans): 100%

O=C(CCc1ccccc1)Nc1cccc(CON=C(c2cccc(F)c2)c2nc(=O)o[nH]2)n1 [Example 47]
pest or weed control at 500 ppm (Pyricularia oryzae): 75% | chromatographic logP [1]: 3.29 | pest or weed control at 500 ppm (Phytophthora infestans): 100%

C#CCCOC(=O)Nc1cccc(CON=C(c2cccc(F)c2)c2nc(=O)o[nH]2)n1 [Example 49]
pest or weed control at 500 ppm (Pyricularia oryzae): 83% | chromatographic logP [1]: 2.8 | pest or weed control at 500 ppm (Phytophthora infestans): 93%

O=C(COc1ccccc1)Nc1cccc(CON=C(c2cccc(F)c2)c2nc(=O)o[nH]2)n1 [Example 51]
pest or weed control at 500 ppm (Pyricularia oryzae): 83% | chromatographic logP [1]: 3.21 | pest or weed control at 500 ppm (Phytophthora infestans): 100%

CC(C)CCOC(=O)Nc1cccc(CON=C(c2cccc(F)c2)c2nc(=O)o[nH]2)n1 [Example 52]
pest or weed control at 500 ppm (Pyricularia oryzae): 75% | chromatographic logP [1]: 3.83 | pest or weed control at 500 ppm (Phytophthora infestans): 100%

CCCCCC(=O)Nc1cccc(CON=C(c2cccc(OC)c2)c2nc(=O)o[nH]2)n1 [Example 53]
pest or weed control at 500 ppm (Pyricularia oryzae): 75% | chromatographic logP [1]: 3.31 | pest or weed control at 500 ppm (Phytophthora infestans): 95%

CCCCC(=O)Nc1cccc(CON=C(c2cccc(OC)c2)c2nc(=O)o[nH]2)n1 [Example 54]
pest or weed control at 500 ppm (Pyricularia oryzae): 83% | chromatographic logP [1]: 2.96 | pest or weed control at 500 ppm (Phytophthora infestans): 100%

Cc1ccc(C(=O)Nc2cccc(CON=C(c3cccc(C)c3)c3nc(=O)on3C)n2)cc1 [Example 80]
chromatographic logP [1]: 3.53 | pest or weed control at 500 ppm (Phytophthora infestans): 80%

Cc1cccc(C(=NOCc2cccc(NC(=O)c3ccccc3)n2)c2nc(=O)on2C)c1 [Example 82]
chromatographic logP [1]: 3.21 | pest or weed control at 500 ppm (Phytophthora infestans): 75%

C#CCC(C)OC(=O)Nc1cccc(CON=C(c2cccc(C)c2)c2nc(=O)on2C)n1 (stereo not shown) [Example 83]
chromatographic logP [1]: 3.25 | pest or weed control at 500 ppm (Phytophthora infestans): 94%

C#CCCOC(=O)Nc1cccc(CON=C(c2cccc(C)c2)c2nc(=O)on2C)n1 [Example 84]
chromatographic logP [1]: 2.96 | pest or weed control at 500 ppm (Phytophthora infestans): 100%

Cc1cccc(C(=NOCc2cccc(NC(=O)CC(C)C)n2)c2nc(=O)on2C)c1 [Example 85]
chromatographic logP [1]: 3.13 | pest or weed control at 500 ppm (Phytophthora infestans): 100%

Cc1cccc(C(=NOCc2cccc(NC(=O)c3ccc(F)cc3)n2)c2nc(=O)on2C)c1 [Example 87]
chromatographic logP [1]: 3.33 | pest or weed control at 500 ppm (Phytophthora infestans): 75%

C#CCC(C)OC(=O)Nc1cccc(CON=C(c2cccc(OC)c2)c2nc(=O)on2C)n1 (stereo not shown) [Example 94]
chromatographic logP [1]: 3.02 | pest or weed control at 500 ppm (Phytophthora infestans): 85%

C#CCCOC(=O)Nc1cccc(CON=C(c2cccc(OC)c2)c2nc(=O)on2C)n1 [Example 96]
chromatographic logP [1]: 2.75 | pest or weed control at 500 ppm (Phytophthora infestans): 90%

CC(Oc1ccccc1)C(=O)Nc1cccc(CON=C(c2cccc(F)c2)c2nc(=O)on2C)n1 (stereo not shown) [Example 97]
chromatographic logP [1]: 3.44 | pest or weed control at 500 ppm (Phytophthora infestans): 70%

C#CCC(C)OC(=O)Nc1cccc(CON=C(c2cccc(F)c2)c2nc(=O)on2C)n1 (stereo not shown) [Example 99]
chromatographic logP [1]: 3.09 | pest or weed control at 500 ppm (Phytophthora infestans): 100%

COc1ccc(CC(=O)Nc2cccc(CON=C(c3cccc(C)c3)c3nc(=O)on3C)n2)cc1 [Example 100]
chromatographic logP [1]: 3.19 | pest or weed control at 500 ppm (Phytophthora infestans): 100%

COc1cccc(C(=NOCc2cccc(NC(=O)OCCC(C)C)n2)c2nc(=O)on2C)c1 [Example 101]
chromatographic logP [1]: 3.78 | pest or weed control at 500 ppm (Phytophthora infestans): 70%

CCCCCOC(=O)Nc1cccc(CON=C(c2cccc(OC)c2)c2nc(=O)on2C)n1 [Example 102]
chromatographic logP [1]: 3.83 | pest or weed control at 500 ppm (Phytophthora infestans): 98%

Cc1cccc(C(=NOCc2cccc(NC(=O)C(C)Oc3ccccc3)n2)c2nc(=O)on2C)c1 (stereo not shown) [Example 103]
chromatographic logP [1]: 3.64 | pest or weed control at 500 ppm (Phytophthora infestans): 80%

COc1cccc(C(=NOCc2cccc(NC(=O)OCc3ccccc3)n2)c2nc(=O)on2C)c1 [Example 104]
chromatographic logP [1]: 3.42 | pest or weed control at 500 ppm (Phytophthora infestans): 88%

COc1cccc(C(=NOCc2cccc(NC(=O)Cc3cccc(F)c3)n2)c2nc(=O)on2C)c1 [Example 105]
chromatographic logP [1]: 3.09 | pest or weed control at 500 ppm (Phytophthora infestans): 75%

COc1cccc(C(=NOCc2cccc(NC(=O)c3ccc(C)cc3)n2)c2nc(=O)on2C)c1 [Example 106]
chromatographic logP [1]: 3.27 | pest or weed control at 500 ppm (Phytophthora infestans): 90%

CC#CCOC(=O)Nc1cccc(CON=C(c2cccc(C)c2)c2nc(=O)on2C)n1 [Example 107]
chromatographic logP [1]: 3.13 | pest or weed control at 500 ppm (Phytophthora infestans): 93%
